Experimental data published in paper PMC8618441, “From Natural Xanthones to Synthetic C-1 Aminated 3,4-Dioxygenated Xanthones as Optimized Antifouling Agents” (Marine Drugs, 2021).
Converted amounts (≈) assume the structure as drawn. Like-named read-outs stand apart in the source and are kept apart here.

Assays:
[1] = test system: Mytilus galloprovincialis plantigrade larvae; conditions: cited from earlier work
[2] = test system: Mytilus galloprovincialis plantigrade larvae; conditions: cited from earlier work; remark: listed apart in the source
Artemia salina nauplii [3] = conditions: cited from earlier work
Artemia salina nauplii [4] = assay: Brine shrimp (Artemia salina) lethality test, ecotoxicity; format: in vivo; conditions: 48 h; for toxicity to A. salina: lowest concentration tested, 25 μM; for mortality of Artemia salina nauplii: at 50 µM
Procedure: Ecotoxicity of the most promising xanthones to non-target species was assessed using the brine shrimp (Artemia salina) lethality test standard protocol. Newly hatched nauplii I larvae were used for the exposure to the most promising antifouling compounds at 50 and 25 µM. The bioassay was performed in 96-well microplates with eight replicates per condition and 15–20 nauplii per well, including a positive (K2Cr2O7 at 13.6 µM) and negative control (0.1% DMSO). The percentage of nauplii mortality for each condition was determined at the end of the exposure period (48 h).

[5] = test system: Mytilus galloprovincialis plantigrade larvae; assay: Mytilus galloprovincialis larvae anti-settlement bioassay; format: in vivo; conditions: for anti-settlement response versus negative control: screening at 50 μM, Dunnett test p < 0.05; for settlement of mussel larvae: at 50 µM
Procedure: (§1) For the bioassays, M. galloprovincialis juveniles were collected in intertidal mussel beds during low tides in Memória beach, Matosinhos, Portugal (41°13′59″ N; 8°43′28″ W). Mussel plantigrade larvae (0.5–2 mm) were sorted in a binocular magnifier (Olympus SZX2-ILLT, Tokyo, Japan) and those presenting foot exploring behavior for settlement were selected to the screening bioassays at 50 µM performed in 24-well microplates for 15 h, in the dark at 18 ± 1 °C, according to Almeida et al.. Four well replicates per condition and five competent larvae per well were included. Negative and positive controls were included, namely DMSO (0.1%) and CuSO4 (5 µM) as an efficient antifouling agent. Stock solutions in DMSO (50 mM) were used to prepare test media (50 µM) in filtered seawater (0.1% DMSO). After the exposure period, the anti-settlement bioactivity was determined by the observation of efficiently attached plantigrade larvae considering the existence/absence of produced byssal threads for each test condition.
(§2) Data from the anti-settlement screening were analyzed using a one-way analysis of variance (ANOVA), followed by a Dunnett test against the negative control (p < 0.05). […] Therapeutic ratios (LC50/EC50) were used to evaluate the effectiveness versus toxicity of bioactive compounds. […] The mixed model ANOVA was performed on log10(x + 1)-transformed values from 4 biological replicates, employing the software IBM SPSS Statistics (version 21, SPSS Inc., Chicago, IL, USA).

[6] = Toxicity (LC50, therapeutic ratio) toward mussel plantigrade larvae; format: in vivo; conditions: Mytilus galloprovincialis, in vivo, median lethal dose, mussel plantigrades
Procedure: as §1, §2

[7] = test system: Mytilus galloprovincialis plantigrade larvae; assay: as above; format: in vivo
Procedure: as §1, §2

[8] = test system: Roseobacter litoralis CECT 5395; assay: Biofilm-forming marine bacteria growth bioassay; format: cell-based; conditions: for inhibition at 12.5 µM: Roseobacter litoralis, read-out: growth inhibition of R. litoralis
Procedure: The experimental procedure was performed as previously reported by Almeida et al.. […] Bacterial growth inhibition in the presence of the compounds was determined in quadruplicate at 600 nm using a microplate reader (Biotek Synergy HT, Winooski, VT, USA). Negative and positive controls used were a solution of marine broth with 0.1% DMSO, and a stabilized solution of marine broth with penicillin-streptomycin-neomycin, respectively.

[9] = test system: Balanus amphitrite larvae; conditions: cited from earlier work; for EC50, larval settlement of Balanus amphitrite / toxicity effects on the barnacle larvae: in vivo
[10] = test system: brine shrimp (Artemia salina); design: method as in PMID 23172582; conditions: in words; cited from earlier work
Escherichia coli = test system: Escherichia coli; design: method as in PMID 23172582; conditions: in words; cited from earlier work
[11] = test system: Colletotrichum lagenarium; design: method as in PMID 23172582; conditions: in words; cited from earlier work
Staphylococcus aureus = test system: Staphylococcus aureus; design: method as in PMID 23172582; conditions: in words; cited from earlier work
[12] = Mytilus galloprovincialis, 15 h
[13] = Mytilus galloprovincialis, 15 h, read-out: EC50 (μg.mL^−1)
[14] = Mytilus galloprovincialis, 15 h, concentration that inhibited 50% of larval settlement of mussel plantigrades, 15 h exposure, read-out: EC50
[15] = Mytilus galloprovincialis, 15 h, concentration that inhibited 50% of larval settlement of mussel plantigrades, 15 h exposure, read-out: EC50 (μg.mL^−1)
[16] = other: larvae immersed in test media in filtered seawater
[17] = larval settlement of mussel plantigrades

Row | Compound | anti-settlement response versus negative control [5] | mortality of Artemia salina nauplii (Artemia salina nauplii [4]) [%] | EC50 [5, 14] [µM] | EC50 [5, 15] [µg/mL] | settlement of mussel larvae ([5]; 15 h) [%] | LC50 at 15 h [6, 16] [µM] | toxicity to the macrofouling species (mussel larvae) ([7]; in vivo) | also measured
1 | O=c1c2ccccc2oc2c(O)c(O)ccc12 [3,4-Dihydroxyxanthone] |  |  |  |  |  |  |  | activity toward the settlement of Mytilus galloprovincialis larvae ([1]; in words): exhibited in vivo activity; toxicity to the macrofouling species (mussel larvae) ([2]; in words): low toxicity; ecotoxicity toward A. salina, mortality (Artemia salina nauplii [3]): < 10%
2 | COc1cc(C)c2c(=O)c3ccccc3oc2c1OC [Compound 1, 3,4-dimethoxy-1-methyl-9H-xanthen-9-one] | highly significant anti-settlement responses |  |  |  |  |  |  | toxicity to A. salina (Artemia salina nauplii [4]): significant toxicity; EC50 [5, 12]: 11.8 µM; EC50 [5, 13]: 3.19 µg/mL; LC50 at 15 h [6]: > 100 µM; toxicity to the macrofouling species (mussel larvae) ([7]; in words): low toxicity
3 | COc1ccc2c(=O)c3c(C)cc(OC)c(OC)c3oc2c1 [Compound 2, 3,4,6-trimethoxy-1-methyl-9H-xanthen-9-one] | highly significant anti-settlement responses |  |  |  |  |  |  | toxicity to A. salina (Artemia salina nauplii [4]): significant toxicity; EC50 [5, 12]: 27.2 µM; EC50 [5, 13]: 8.15 µg/mL; LC50 at 15 h [6]: > 100 µM; toxicity to the macrofouling species (mussel larvae) ([7]; in words): low toxicity
4 | COc1ccc2c(=O)c3c(C)c(Cl)c(OC)c(OC)c3oc2c1 [Compound 3, 2-chloro-3,4,6-trimethoxy-1-methyl-9H-xanthen-9-one] | nullified the significant anti-settlement effect |  |  |  |  |  |  | 
5 | COc1ccc2c(=O)c3c(CCl)cc(OC)c(OC)c3oc2c1 [Compound 4, 1-(chloromethyl)-3,4,6-trimethoxy-9H-xanthen-9-one] | highly significant anti-settlement responses | < 10 | 16.1 | 5.41 | 20 | > 100 | low toxicity | 
6 | COc1ccc2c(=O)c3c(CBr)cc(OC)c(OC)c3oc2c1 [Compound 5, 1-(bromomethyl)-3,4,6-trimethoxy-9H-xanthen-9-one] |  |  |  |  | 45 |  |  | 
7 | COc1cc(C(Br)Br)c2c(=O)c3ccccc3oc2c1OC [Compound 6, 1-(dibromomethyl)-3,4-dimethoxy-9H-xanthen-9-one] | highly significant anti-settlement responses | < 10 |  |  |  |  |  | EC50 [5, 12]: 22.8 µM; EC50 [5, 13]: 9.75 µg/mL; inhibition at 12.5 µM ([8]; CECT5395, 24 h): > 30%; LC50 at 15 h [6]: > 100 µM; toxicity to the macrofouling species (mussel larvae) ([7]; in words): low toxicity
8 | COc1cc(CO)c2c(=O)c3ccccc3oc2c1OC [Compound 8, 1-(hydroxymethyl)-3,4-dimethoxy-9H-xanthen-9-one] | highly significant anti-settlement responses | < 10 | 21.8 | 6.25 | 35 | > 100 | low toxicity | 
9 | COc1cc(CNCCN2CCOCC2)c2c(=O)c3ccccc3oc2c1OC [Compound 16, 3,4-dimethoxy-1-(((2-morpholinoethyl)amino)methyl)-9H-xanthen-9-one] | highly significant anti-settlement responses | < 10 | 17.5 | 6.98 | 0 | > 100 | low toxicity | antibacterial bioactivity in concentration–response study ([8]; R. litoralis, concentrations between 2 and 32 µM (Figure S1)): not confirmed; inhibition at 12.5 µM ([8]; CECT5395, screening at 12.5 µM, 24 h): > 30%
10 | COc1cc(CN2CCN(CCO)CC2)c2c(=O)c3ccccc3oc2c1OC [Compound 19, 1-((4-(2-hydroxyethyl)piperazin-1-yl)methyl)-3,4-dimethoxy-9H-xanthen-9-one] | highly significant anti-settlement responses | < 10 | 53.9 | 21.5 | 10 | > 100 | low toxicity | 
11 | COc1cc(CN2CCc3c(N)cccc3C2)c2c(=O)c3ccccc3oc2c1OC [Compound 21, 1-((5-amino-3,4-dihydroisoquinolin-2(1H)-yl)methyl)-3,4-dimethoxy-9H-xanthen-9-one] | highly significant anti-settlement responses | < 10 | 7.28 | 3.03 | 20 | > 100 | low toxicity | 
12 | COc1cc(CN2CCCCC2)c2c(=O)c3ccccc3oc2c1OC [Compound 23, 3,4-dimethoxy-1-(piperidin-1-ylmethyl)-9H-xanthen-9-one] | highly significant anti-settlement responses | < 10 | ~4 | 1.26 | 20 | > 100 | low toxicity | EC50 ([5]; concentration that inhibited 50% of larval settlement of mussel plantigrades, 15 h exposure, read-out: EC50): 3.57 µM
13 | N#Cc1c(-c2ccc(Cl)cc2)[nH]c(C(F)(F)F)c1Br [ECONEA] |  |  |  |  |  |  |  | EC50 [1, 17]: 4.01 µM; EC50 (μg.mL^−1) [1, 17]: 1.40 µg/mL (≈ 4.01 µM); LC50 ([2]; median lethal dose, mussel plantigrades): 108 µM; mortality of Artemia salina (Artemia salina nauplii [3]; at the same concentration range (25-50 µM)): 100%
14 | COc1cc2c(c3c(=O)c4c(OC)ccc(O)c4oc13)[C@@H]1C=CO[C@@H]1O2 [methoxysterigmatocystin] |  |  |  |  |  |  |  | EC50, larval settlement of Balanus amphitrite [9]: < 0.125 µg/mL; toxicity effects on the barnacle larvae [9]: induced paralyzing effects
15 | COC(=O)c1cc(O)cc2oc3c(Cl)c(C)c(Cl)c(O)c3c(=O)c12 [penicilixanthone] |  |  |  |  |  |  |  | EC50, larval settlement of B. amphitrite [9]: 17.1 µg/mL
16 | COc1cc2c(c3oc4cccc(O)c4c(=O)c13)[C@@H]1C=CO[C@@H]1O2 [sterigmatocystin] |  |  |  |  |  |  |  | EC50, larval settlement of Balanus amphitrite [9]: < 0.125 µg/mL; toxicity effects on the barnacle larvae [9]: induced paralyzing effects
17 | COC(=O)c1cc(OC)c2c(=O)c3c(O)cc(C)cc3oc2c1 [yicathin B] |  |  |  |  |  |  |  | brine shrimp (Artemia salina) toxicity [10]: weak; antimicrobial activity against Escherichia coli (Escherichia coli): active
18 | COc1cc(C(=O)O)cc2oc3cc(C)cc(O)c3c(=O)c12 [yicathin C] |  |  |  |  |  |  |  | brine shrimp (Artemia salina) toxicity [10]: weak; antimicrobial activity against Colletotrichum lagenarium [11]: could inhibit; antimicrobial activity against Staphylococcus aureus (Staphylococcus aureus): could inhibit; antimicrobial activity against Escherichia coli (Escherichia coli): could inhibit
